Target: T1, Recombinant human liver GK1 (GST-GK) (Homo sapiens, UniProt P35557)
T1 construct: made in house; host or cells: E. coli
T1 sequence (P35557 1-466 isoform P35557-2): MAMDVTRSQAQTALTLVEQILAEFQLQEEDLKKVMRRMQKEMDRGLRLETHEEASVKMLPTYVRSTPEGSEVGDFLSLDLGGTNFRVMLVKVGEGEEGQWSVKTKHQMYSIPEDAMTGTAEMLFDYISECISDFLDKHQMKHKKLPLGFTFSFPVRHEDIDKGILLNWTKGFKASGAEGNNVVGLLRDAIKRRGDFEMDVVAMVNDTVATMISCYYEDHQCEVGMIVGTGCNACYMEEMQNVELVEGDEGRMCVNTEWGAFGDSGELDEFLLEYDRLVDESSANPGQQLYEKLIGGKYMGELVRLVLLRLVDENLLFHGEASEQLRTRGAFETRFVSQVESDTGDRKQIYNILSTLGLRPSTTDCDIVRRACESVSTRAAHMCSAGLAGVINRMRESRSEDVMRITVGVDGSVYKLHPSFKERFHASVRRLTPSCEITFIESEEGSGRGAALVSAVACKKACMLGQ
Assay: In vitro glucokinase activity (G6PDH-coupled NADH assay)
Format: biochemical
Details: 30° C., 5 mM D-glucose, 10% DMSO
Procedure: Glucokinase In Vitro Assay Protocol: Glucokinase (GK) was assayed by coupling the production of glucose-6-phosphate to the generation of NADH with glucose-6-phosphate dehydrogenase (G6PDH, 0.75-1 kunits/mg; Boehringer Mannheim, Indianapolis, Ind.) from Leuconostoc mesenteroides as the coupling enzyme (Scheme 2).
Recombinant human liver GK1 was expressed in E. coli as a glutathione S-transferase fusion protein (GST-GK) [Liang et al, 1995] and was purified by chromatography over a glutathione-Sepharose 4B affinity column using the procedure provided by the manufacturer (Amersham Pharmacia Biotech, Piscataway, N.J.).
The assay was conducted at 30° C. in a flat bottom 96-well tissue culture plate from Costar (Cambridge, Mass.) with a final incubation volume of 120 μL. The incubation reaction contained the following: 25 mM Hepes buffer (pH 7.1), 25 mM KCl, 5 mM D-glucose, 1 mM ATP, 1.8 mM NAD, 2 mM MgCl2, 1 μM sorbitol-6-phosphate, 1 mM dithiothreitol, test drug or 10% dimethylsulfoxide, ˜7 units/ml G6PDH, and GK (see below). All organic reagents were >98% pure and were from Boehringer Mannheim with the exceptions of D-glucose and Hepes which were from Sigma Chemical Co, St Louis, Mo. Test compounds were dissolved in dimethylsulfoxide and were added to the incubation reaction minus GST-GK in a volume of 12 μL to yield a final dimethylsulfoxide concentration of 10%. This mix was pre-incubated in the temperature controlled chamber of a SPECTRAmax 250 microplate spectrophotometer (Molecular Devices Corporation, Sunnyvale, Calif.) for 10 min to allow temperature equilibrium and then the reaction was started by the addition of 20 μL GST-GK.
After addition of enzyme, the increase in optical density (OD) at 340 nm was monitored spectrophotometrically to determine the rate of change (OD340 per min). The GK activity (OD340/min) in control wells (10% DMSO minus GK activators) was compared with the activity in wells containing test GK activators, and the concentration of activator that produced a 50% increase in the activity of GK, i.e., the SC1.5, was calculated. The table below provides the in vitro glucokinase activity for the compounds in the Examples: […]

Row | SMILES | SC1.5 (concentration of activator that produced a 50% increase in the activity of GK) [µM]
1 | CC(C)OCCn1ccc(NC(=O)[C@H](CC2CCCC2)N2CC(OC3CCCC3)=CC2=O)n1 [Example 20, (S)-3-Cyclopentyl-N-[1-(2-isopropoxy-ethyl)-1H-pyrazol-3-yl]-2-(4-cyclopentyloxy-2-oxo-2,5-dihydro-pyrrol-1-yl)-propionamide] | 1.388
2 | COC(C)(C)Cn1ccc(NC(=O)[C@H](CC2CCCC2)N2CC(OC(C)C)=CC2=O)n1 [Example 22, (S)-3-Cyclopentyl-N-[1-(2-methoxy-2-methyl-propyl)-1H-pyrazol-3-yl]-2-(4-isopropoxy-2-oxo-2,5-dihydro-pyrrol-1-yl)-propionamide] | 1.048
3 | CC(C)OC1=CC(=O)N([C@@H](CC2CCCC2)C(=O)Nc2cnccn2)C1 [Example 23, (S)-3-Cyclopentyl-N-(pyrazin-2-yl)-2-(4-isopropoxy-2-oxo-2,5-dihydro-pyrrol-1-yl)-propionamide] | 5.216
4 | CCCOC1=CC(=O)N([C@@H](CC2CCCCC2)C(=O)Nc2ccn(CC(C)(C)O)n2)C1 [Example 24, (S)-3-Cyclohexyl-N-[1-(2-hydroxy-2-methyl-propyl)-1H-pyrazol-3-yl]-2-(2-oxo-4-propoxy-2,5-dihydro-pyrrol-1-yl)-propionamide] | 5.251
5 | CC(C)OC1=CC(=O)N([C@@H](CC2CCCCC2)C(=O)Nc2ccn(CC(C)(C)O)n2)C1 [Example 25, (S)-3-Cyclohexyl-N-[1-(2-hydroxy-2-methyl-propyl)-1H-pyrazol-3-yl]-2-(4-isopropoxy-2-oxo-2,5-dihydro-pyrrol-1-yl)-propionamide] | 1.872
6 | COc1ccccc1OC1=CC(=O)N([C@@H](CC2CCCCC2)C(=O)Nc2ccn(C)n2)C1 [Example 29, (S)-3-Cyclohexyl-N-(1-methyl-1H-pyrazol-3-yl)-2-[4-(2-methoxy-phenoxy)-2-oxo-2,5-dihydro-pyrrol-1-yl]-propionamide] | 0.033
7 | COc1ccccc1OC1=CC(=O)N([C@@H](CC2CCCCC2)C(=O)Nc2ccn(C[C@H](O)CO)n2)C1 [Example 30, (S)-3-Cyclohexyl-N-[1-((S)-2,3-dihydroxy-propyl)-1H-pyrazol-3-yl]-2-[4-(2-methoxy-phenoxy)-2-oxo-2,5-dihydro-pyrrol-1-yl]-propionamide] | 0.031
8 | CC(C)(O)Cn1ccc(NC(=O)[C@H](CC2CCCCC2)N2CC(Oc3cccc4c3OCCO4)=CC2=O)n1 [Example 33, (S)-3-Cyclohexyl-2-[4-(2,3-dihydro-benzo[1,4]dioxin-5-yloxy)-2-oxo-2,5-dihydro-pyrrol-1-yl]-N-[1-(2-hydroxy-2-methyl-propyl)-1H-pyrazol-3-yl]-propionamide] | 0.035
9 | COc1ccccc1OC1=CC(=O)N(C(CC2CCOCC2)C(=O)Nc2ccn(CC(C)(C)O)n2)C1 (centres unmarked) [Example 34, N-[1-(2-hydroxy-2-methyl-propyl)-1H-pyrazol-3-yl]-2-[4-(2-methoxy-phenoxy)-2-oxo-2,5-dihydro-pyrrol-1-yl]-3-(tetrahydropyran-4-yl)-propionamide] | 0.217
10 | COc1ccccc1OC1=CC(=O)N(C(COC(C)(C)C)C(=O)Nc2ccn(CC(C)(C)O)n2)C1 (centres unmarked) [Example 35, 3-t-Butoxy-N-[1-(2-hydroxy-2-methyl-propyl)-1H-pyrazol-3-yl]-2-[4-(2-methoxy-phenoxy)-2-oxo-2,5-dihydro-pyrrol-1-yl]-propionamide] | 9.491
11 | CC(C)(O)Cn1ccc(NC(=O)[C@H](CC2CCCCC2)N2CC(Oc3c(F)cccc3F)=CC2=O)n1 [Example 36, (S)-3-Cyclohexyl-2-[4-(2,6-difluoro-phenoxy)-2-oxo-2,5-dihydro-pyrrol-1-yl]-N-[1-(2-hydroxy-2-methyl-propyl)-1H-pyrazol-3-yl]-propionamide] | 0.028
12 | O=C(Nc1ccn(C[C@H](O)CO)n1)[C@H](CC1CCCCC1)N1CC(Oc2c(F)cccc2F)=CC1=O [Example 37, (S)-3-Cyclohexyl-2-[4-(2,6-difluoro-phenoxy)-2-oxo-2,5-dihydro-pyrrol-1-yl]-N-[1-((S)-2,3-dihydroxy-propyl)-1H-pyrazol-3-yl]-propionamide] | 0.036
13 | O=C(Nc1ccn(C[C@@H](O)CO)n1)[C@H](CC1CCCCC1)N1CC(Oc2c(F)cccc2F)=CC1=O [Example 38, (S)-3-Cyclohexyl-2-[4-(2,6-difluoro-phenoxy)-2-oxo-2,5-dihydro-pyrrol-1-yl]-N-[1-((R)-2,3-dihydroxy-propyl)-1H-pyrazol-3-yl]-propionamide] | 0.027
14 | COC(=O)c1ccc(NC(=O)[C@H](CC2CCCCC2)N2CC(Oc3c(F)cccc3F)=CC2=O)nc1 [Example 39, 6-{(S)-3-Cyclohexyl-2-[4-(2,6-difluoro-phenoxy)-2-oxo-2,5-dihydro-pyrrol-1-yl]-propionylamino}-nicotinic acid methyl ester] | 0.025
15 | COC(=O)c1ccc(NC(=O)C(CC2CCOCC2)N2CC(Oc3c(F)cccc3F)=CC2=O)nc1 (centres unmarked) [Example 40, 6-[2-[4-(2,6-difluoro-phenoxy)-2-oxo-2,5-dihydro-pyrrol-1-yl]-3-(tetrahydro-pyran-4-yl)-propionylamino]-nicotinic acid methyl ester] | 0.19
16 | COC(=O)c1ccc(NC(=O)[C@H](CC2CCOCC2)N2CC(Oc3c(F)cccc3F)=CC2=O)nc1 [Example 41, (S)-6-[2-[4-(2,6-difluoro-phenoxy)-2-oxo-2,5-dihydro-pyrrol-1-yl]-3-(tetrahydro-pyran-4-yl)-propionylamino]-nicotinic acid methyl ester] | 0.071
17 | CC(C)(O)Cn1ccc(NC(=O)C(CC2CCOCC2)N2CC(Oc3c(F)cccc3F)=CC2=O)n1 (centres unmarked) [Example 42, 2-[4-(2,6-Difluoro-phenoxy)-2-oxo-2,5-dihydro-pyrrol-1-yl]-N-[1-(2-hydroxy-2-methyl-propyl)-1H-pyrazol-3-yl]-3-(tetrahydro-pyran-4-yl)-propionamide] | 0.148
18 | O=C(Nc1ccn(C[C@@H](O)CO)n1)C(CC1CCOCC1)N1CC(Oc2c(F)cccc2F)=CC1=O (stereo partly drawn) [Example 44, 2-[4-(2,6-Difluoro-phenoxy)-2-oxo-2,5-dihydro-pyrrol-1-yl]-N-[1-((R)-2,3-dihydroxy-propyl)-1H-pyrazol-3-yl]-3-(tetrahydro-pyran-4-yl)-propionamide] | 0.165
19 | CC(C)C[C@@H](C(=O)Nc1ccn(CC(C)(C)O)n1)N1CC(Oc2c(F)cccc2F)=CC1=O [Example 45, (S)-2-[4-(2,6-difluoro-phenoxy)-2-oxo-2,5-dihydro-pyrrol-1-yl]-4-methyl-pentanoic acid [1-(2-hydroxy-2-methyl-propyl)-1H-pyrazol-3-yl]-amide] | 0.198
20 | COC(=O)c1ccc(NC(=O)[C@H](CC(C)C)N2CC(Oc3c(F)cccc3F)=CC2=O)nc1 [Example 46, 6-{(S)-2-[4-(2,6-difluoro-phenoxy)-2-oxo-2,5-dihydro-pyrrol-1-yl]-4-methyl-pentanoylamino}-nicotinic acid methyl ester] | 0.097

From patent US7741327B2 (Hoffmann-La Roche Inc., priority 2008, dated 2010)
